Format in all cases: in vivo
Data set [1] has as its system White Peach Scale (Pseudaulacaspis pentagona). Briefly: Insecticidal effect on white peach scale, sprayed potato tuber (Test Examples 3 and 5). The settings on record: 100 ppm liquid chemical, potato tuber with first-instar larvae, fourteen days after the treatment. From the text: Insecticidal Effect on White Peach Scale (Pseudaulacaspis pentagona)
A preparation containing each compound of the present invention listed in Tables 2 to 4 or each comparative compound as an active ingredient was dispersed in and diluted with water to obtain a 100 ppm liquid chemical. A potato tuber with first-instar larvae of white peach scale as parasites was sprayed with the liquid chemical with a spray gun. Fourteen days after the treatment, the living insects were counted. In the same manner as in Test Example 2, the corrected mortality was calculated and the insecticidal effect was judged.
Insecticidal Effect on White Peach Scale (Pseudaulacaspis pentagona) at a Low Dosage
The same test as in Test Example 3 was carried out except for changing the concentration of the liquid chemical to 30 ppm.

Data set [2] relates to Green Peach Aphid (Myzus persicae). The experiment in a line: Insecticidal effect on green peach aphid, foliar spray on potted Chinese cabbage (Test Example 1). As to conditions: 500 ppm liquid chemical, sprayed on Chinese cabbage stalks and leaves, six days after the spraying. From the text:
Insecticidal Effect on Green Peach Aphid (Myzus persicae)
A Chinese cabbage plant was planted in each of plastic pots with a diameter of 8 cm and a height of 8 cm, and green peach aphids were propagated on the plant, after which the parasites in each pot were counted. A preparation containing each compound of the present invention listed in Tables 2 to 4 or each comparative compound as an active ingredient was dispersed in and diluted with water to obtain a 500 ppm liquid chemical. The stalks and leaves of the potted Chinese cabbage plants were sprayed with the liquid chemical and air-dried, and then the pots were stored in a greenhouse. Six days after the spraying, green peach aphids parasitic on each Chinese cabbage plant were counted and the control efficacy was calculated by the following equation, whereby the insecticidal effect was judged according to the criterion shown below. Control efficacy=100−{(T×Ca)/(Ta×C)}×100 • Ta: number of parasites before spraying in treated group, • T: number of parasites after spraying in treated group, • Ca: number of parasites before spraying in untreated group, • C: number of parasites after spraying in untreated group.

The test system of data set [3] is Greenhouse Whitefly (Trialeuroddes vaporariorum). Briefly: Insecticidal effect on greenhouse whitefly, sprayed tomato leaf (Test Examples 2 and 4). The settings on record: for Test Example 2: insecticidal effect (corrected mortality): 100 ppm liquid chemical, sprayed tomato leaf, 20 adult whiteflies, four days after the inoculation; for Test Example 4: controlling effect at a low dosage (corrected mortality): 3 ppm liquid chemical, otherwise same as Test Example 2. The text has this:
Insecticidal Effect on Greenhouse Whitefly (Trialeuroddes vaporariorum)
A preparation containing each compound of the present invention listed in Tables 2 to 4 or each comparative compound as an active ingredient was dispersed in and diluted with water to obtain a 100 ppm liquid chemical. A tomato leaf set in a 20-ml vial with its stalk immersed in water was sprayed with the liquid chemical with a spray gun on a turntable. After air-dryness, the treated leaf was placed in a glass cylinder and inoculated with 20 adult greenhouse whiteflies. After the treatment, the glass cylinder was placed in a greenhouse. Four days after the inoculation, the living insects were counted. The corrected mortality was calculated according to the following equation and the insecticidal effect was judged according to the criterion shown below.
[formula] Criterion for Judgment:
Insecticidal Effect on Greenhouse (Trialeuroddes vaporariorum) at a Low Dosage
The same test as in Test Example 2 was carried out except for changing the concentration of the liquid chemical to 3 ppm.

The values below come from patent US8034931B2, “Process for producing substituted aminoquinazolinone derivative, intermediate therefor, and pest control agent” (Nihon Nohyaku Co., Ltd., priority 2003, dated 2011).

For the compound `O=C(c1ccc(Cl)c(Cl)c1)N1C(=O)N(N=Cc2cccnc2)Cc2cc(C(F)(C(F)(F)F)C(F)(F)F)ccc21` [compound 31], in data set [1], the “Test Example 3: insecticidal effect (corrected mortality)” value (from here on “Test Example 3: insecticidal effect”) is “A (Corrected mortality 100%)”. For the same compound, the “Test Example 1: insecticidal effect (control efficacy)” value (shortened to “Test Example 1: insecticidal effect”) in data set [2] is on record as “A (Control efficacy 100%)”. In data set [3], the “Test Example 2: insecticidal effect (corrected mortality)” value (shortened to “Test Example 2: insecticidal effect”) is listed as “A (Corrected mortality 100%)”.
As for `CC(=O)N1C(=O)N(NCc2cccnc2)Cc2cc(Br)ccc21` [B, 1-acetyl-3-(3-pyridylmethylamino)-3,4-dihydro-6-bromo-2(1H)-quinazolinone, reference compound], the “Test Example 3: insecticidal effect” value in data set [1] is listed as “C (Corrected mortality 89-80%)”. Besides, the “Test Example 1: insecticidal effect” value in data set [2] was “A (Control efficacy 100%)”. In data set [3], the “Test Example 4: controlling effect at a low dosage (corrected mortality)” value is “D (Corrected mortality 79-50%)” and the “Test Example 2: insecticidal effect” value was “C (Corrected mortality 89-80%)”.
On to `CCCN1C(=O)N(N=Cc2cccnc2)Cc2cc(C(F)(C(F)(F)F)C(F)(F)F)ccc21` [compound No. 3], for which the “Test Example 3: insecticidal effect” value in data set [1] was “A (Corrected mortality 100%)”. In addition, in data set [2], the “Test Example 1: insecticidal effect” value was “A (Control efficacy 100%)”. For the same compound, the “Test Example 2: insecticidal effect” value in data set [3] was “A (Corrected mortality 100%)”.
As to `CC(=O)N1C(=O)N(N=Cc2cccnc2)Cc2ccccc21` [A, 1-acetyl-3-(3-pyridylmethylideneamino)-3,4-dihydro-2(1H)-quinazolinone, reference compound], the “Test Example 3: insecticidal effect” value in data set [1] was “B (Corrected mortality 99-90%)”. Also, in data set [2], the “Test Example 1: insecticidal effect” value was “A (Control efficacy 100%)”. In data set [3], the “Test Example 4: controlling effect at a low dosage (corrected mortality)” value was “C (Corrected mortality 89-80%)” and the “Test Example 2: insecticidal effect” value is given as “A (Corrected mortality 100%)”.
With `COCN1C(=O)N(N=Cc2cccnc2)Cc2cc(C(F)(C(F)(F)F)C(F)(F)F)ccc21` [compound 4], the “Test Example 3: insecticidal effect” value in data set [1] is “A (Corrected mortality 100%)”. The “Test Example 1: insecticidal effect” value in data set [2] was “A (Control efficacy 100%)”. For the same compound, in data set [3], the “Test Example 2: insecticidal effect” value is recorded as “A (Corrected mortality 100%)”.
Consider `CCC(=O)N1C(=O)N(N=Cc2cccnc2)Cc2cc(C(F)(C(F)(F)F)C(F)(F)F)ccc21` [compound 9], for which, in data set [1], the “Test Example 3: insecticidal effect” value was “A (Corrected mortality 100%)”. Also, the “Test Example 1: insecticidal effect” value in data set [2] is “A (Control efficacy 100%)”. Moreover, the “Test Example 2: insecticidal effect” value in data set [3] was “A (Corrected mortality 100%)”.
In the case of `CC(C)OC(=O)N1C(=O)N(N=Cc2cccnc2)Cc2cc(C(F)(C(F)(F)F)C(F)(F)F)ccc21` [compound 19], the “Test Example 3: insecticidal effect” value in data set [1] is “A (Corrected mortality 100%)”. For the same compound, the “Test Example 1: insecticidal effect” value in data set [2] is on record as “A (Control efficacy 100%)”. For the same compound, the “Test Example 2: insecticidal effect” value in data set [3] is “A (Corrected mortality 100%)”.
In the case of `CCC(C)OC(=O)N1C(=O)N(N=Cc2cccnc2)Cc2cc(C(F)(C(F)(F)F)C(F)(F)F)ccc21` (centres unmarked) [compound 21], in data set [1], the “Test Example 3: insecticidal effect” value was “A (Corrected mortality 100%)”. The “Test Example 1: insecticidal effect” value in data set [2] is “A (Control efficacy 100%)”. In addition, the “Test Example 2: insecticidal effect” value in data set [3] is given as “A (Corrected mortality 100%)”.
With `CCN1C(=O)N(N=Cc2cccnc2)Cc2cc(C(F)(C(F)(F)F)C(F)(F)F)ccc21` [compound 2], the “Test Example 3: insecticidal effect” value in data set [1] was “A (Corrected mortality 100%)”. Also, the “Test Example 1: insecticidal effect” value in data set [2] is “A (Control efficacy 100%)”. Moreover, the “Test Example 2: insecticidal effect” value in data set [3] is given as “A (Corrected mortality 100%)”.
As to `CS(=O)(=O)N1C(=O)N(N=Cc2cccnc2)Cc2cc(C(F)(C(F)(F)F)C(F)(F)F)ccc21` [compound 22], the “Test Example 3: insecticidal effect” value in data set [1] is on record as “A (Corrected mortality 100%)”. Moreover, the “Test Example 1: insecticidal effect” value in data set [2] is recorded as “A (Control efficacy 100%)”. Further, the “Test Example 2: insecticidal effect” value in data set [3] is “A (Corrected mortality 100%)”.
